Experimental data from patent EP0233105A1 (priority 1986, dated 1987).
In brackets after ≈: the same amount, converted by molar mass.

Key:
[1] = test system: virus (Polio type I); test: microbe, parasite or virus in culture; assay type: cell-based; conditions: for EC90 / EC99: Vero; for EC90: read-out: DE90; for EC99: read-out: DE 99; for IT90: therapeutic index = DL50 divided by DE90; for IT99: therapeutic index = DL50 divided by DE99
[2] = Lethal dose 50% (inhibition of growth of normal cells); assay type: cell-based; conditions: monkey; concentration inhibiting 50% of growth of normal VERO cells; no unit in table, test concentrations given in microgrammes/ml; read-out: DL50 (the source's name)
Experimental: On a par ailleurs déterminé la dose léthale 50% (DL50) la dose efficace 90% et 99% (DE90 et DE99) et l'indice thérapeutique 90 et 99 (IT90 et IT99) en utilisant les méthodes suivantes :
Les composés ont été préparés à la dose 1 mg/ml dans unvolume maximal de 0,1 ml de diméthyl- sulfoxyde et addition jusqu'à 12 ml d'un milieu de maintenance M-2. Les dilutions ont été effectuées avec le milieu de maintenance M-2.
La DL50 est la concentration à laquelle 50% de la croissance des cellules normales est inhibée. Pour cette détermination on a utilisé 5.10^5 cellules VERO en suspension dans 10 ml de milieu E199 additionné de 6% de sérum de veau (CS) et de gentamycine(20 microgrammes/ml). Les composés ont été ajoutés pour obtenir des concentrations finales de 200;100;-75;50;25;10;5;3;2;1;0,1 et 0,01 microgrammes/ml.

Structure (SMILES) | EC90 [1] [µg/mL] | EC99 [1] [µg/mL] | IT90 [1] | IT99 [1] | CC50 [2] [µg/mL]
COc1c(-c2ccc(O)cc2)oc2ccc(O)cc2c1=O [3-méthoxy-4',6-dihydroxyflavone] | 0.5 (≈ 1.76 µM) | 2 | 6 | 1,5 | 3 (≈ 10.6 µM)
COc1c(-c2ccc(O)cc2)oc2c(OC)cccc2c1=O [3,8-diméthoxy-4'-hydroxyflavone] | 10 (≈ 33.5 µM) | 20 | 2,5 | 1,2 | 25 (≈ 83.8 µM)
COc1ccc(-c2oc3cc(OC)c(OC)c(OC)c3c(=O)c2OC)cc1OC [3,3',4',5,6,7-hexaméthoxyflavone] | 100 (≈ 249 µM) | 200 | 2 | 1 | 200 (≈ 497 µM)
COc1c(-c2ccc(O)cc2)oc2cc(F)ccc2c1=O [3-méthoxy-4'-hydroxy-7-fluoroflavone] | 1 (≈ 3.49 µM) | 6 | 20 | 3,2 | 20 (≈ 69.9 µM)
COc1ccc2c(=O)c(OC)c(-c3ccc(O)cc3)oc2c1 [3,7-diméthoxy-4'-hydroxyflavone] | 1 (≈ 3.35 µM) | 5 | 25 | 5 | 25 (≈ 83.8 µM)
COc1c(-c2ccc(O)cc2)oc2cc(C)ccc2c1=O [3-méthoxy-4'-hydroxy-7-méthylflavone] | 0.5 (≈ 1.77 µM) | 2 | 50 | 12,5 | 25 (≈ 88.6 µM)
COc1c(-c2ccc(O)cc2)oc2cccc(OC)c2c1=O [3,5-diméthoxy-4'-hydroxyflavone] | 5 (≈ 16.8 µM) | 10 | 30 | 15 | 150 (≈ 503 µM)
COc1c(-c2ccc(OCc3ccccc3)cc2)oc2ccccc2c1=O [3-méthoxy-4'-benzyloxyflavone] | 30 (≈ 83.7 µM) | 100 | 3,3 | 1 | 100 (≈ 279 µM)
COc1c(-c2ccc(O)cc2)oc2ccc(C)cc2c1=O [3-méthoxy-4'-hydroxy-6-methylflavone] | 1 (≈ 3.54 µM) | 5 | 75 | 15 | 75 (≈ 266 µM)
COc1ccc(-c2oc3ccc(O)cc3c(=O)c2OC)cc1 [3,4'-diméthoxy-6-hydroxyflavone] | 100 (≈ 335 µM) | 200 | 2 | 1 | 200 (≈ 670 µM)
COc1ccc(-c2oc3ccc(OC)cc3c(=O)c2OC)cc1 [3,4',6-triméthoxyflavone] | 2 (≈ 6.4 µM) | 50 | 50 | 2 | 100 (≈ 320 µM)
COc1c(-c2ccc(Cl)cc2)oc2cc(C)ccc2c1=O [3-méthoxy-4'-chloro-7-méthylflavone] | 10 (≈ 33.3 µM) | 20 | 1 | 0.5 | 10 (≈ 33.3 µM)
COc1ccc(-c2oc3c(OC)c(OC)c(OC)c(OC)c3c(=O)c2OC)cc1OC [3,3',4',5,6,7,8-heptaméthoxyflavone] | 20 (≈ 46.3 µM) | 25 | 10 | 8 | 200 (≈ 463 µM)
COc1c(-c2ccc(O)cc2)oc2cc(Cl)ccc2c1=O [3-méthoxy-4'-hydroxy-7-chloroflavone] | 5 (≈ 16.5 µM) | 7 | 20 | 14,3 | 100 (≈ 330 µM)
COc1ccc2oc(-c3ccc(O)cc3)c(OC)c(=O)c2c1 [3,6-diméthoxy-4'-hydroxyflavone] | 7 (≈ 23.5 µM) | 25 | 29 | 8 | 200 (≈ 670 µM)
COc1ccc(-c2oc3c(OC)c(OC)c(OC)c(O)c3c(=O)c2OC)cc1OC [3,3',4',6,7,8-hexaméthoxy-5-hydroxyflavone] | 20 (≈ 47.8 µM) | 25 | 10 | 8 | 200 (≈ 478 µM)
COc1c(-c2ccc(O)cc2)oc2ccccc2c1=O [3-méthoxy-4'-hydroxyflavone] | 3 (≈ 11.2 µM) | 6 | 3,3 | 1.66 | 10 (≈ 37.3 µM)
COc1cc2oc(-c3ccc(O)cc3)c(OC)c(=O)c2c(O)c1OC [3,6,7-triméthoxy-4',5-dihydroxyflavone] | 0.5 (≈ 1.45 µM) | 5 | 200 | 20 | 100 (≈ 290 µM)
COc1ccc(-c2oc3cc(O)c(OC)c(O)c3c(=O)c2OC)cc1 [3,4',6-triméthoxy-5,7-dihydroxyflavone] | 1 (≈ 2.9 µM) | 10 | 50 | 5 | 50 (≈ 145 µM)
COc1c(-c2ccc(O)cc2)oc2ccc(Cl)cc2c1=O [3-méthoxy-4'-hydroxy-6-chloroflavone] | 2 (≈ 6.61 µM) | 6 | 50 | 17 | 100 (≈ 330 µM)
COc1c(O)cc2oc(-c3ccc(O)cc3)c(OC)c(=O)c2c1O [3,6-diméthoxy-4',5,7-trihydroxyflavone] | 0.5 (≈ 1.51 µM) | 1 | 40 | 20 | 20 (≈ 60.6 µM)
